Laboratory results from patent US20240252501A1 (MORGANDANE SCIENTIFIC, LLC, priority 2016, published 2024).
Where two headings read alike, the source gives them in different places.

What was measured:
P-gp [1] = molecular target: T1, P-gp (Homo sapiens, UniProt P08183); details: cell monolayers in vitro; cited from earlier work
[2] = in vivo; cited from earlier work
P-gp [3] = molecular target: T1, P-gp; details: cited from earlier work
[4] = Reported rivaroxaban serious bleeding adverse events; assay type: in vivo, human; details: concomitantly administered patients, who are 22% of total population receiving rivaroxaban
Source text: 8, 2015, American Heart Association, Scientific Sessions 2015, and published at http://www.abstractsonline.com/pp8/#!/3795/presentation/37668).

Factor Xa [5] = molecular target: T2, Factor Xa (Homo sapiens, UniProt P00742); test: Factor Xa activity in subjects; assay type: in vivo; details: concomitant verapamil vs rivaroxaban alone
T2 construct: host or cells: human subjects (ex vivo pharmacodynamics)
T2 sequence (P00742 235-488 limits assumed): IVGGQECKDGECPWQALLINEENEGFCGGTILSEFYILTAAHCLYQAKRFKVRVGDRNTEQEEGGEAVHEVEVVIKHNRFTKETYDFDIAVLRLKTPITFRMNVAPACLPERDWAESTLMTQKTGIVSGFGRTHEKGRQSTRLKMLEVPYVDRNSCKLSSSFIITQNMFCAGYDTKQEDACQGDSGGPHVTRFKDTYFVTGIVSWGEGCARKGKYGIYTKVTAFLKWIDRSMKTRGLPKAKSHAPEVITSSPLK
T2 sequence (P00742 41-179 partner limits assumed): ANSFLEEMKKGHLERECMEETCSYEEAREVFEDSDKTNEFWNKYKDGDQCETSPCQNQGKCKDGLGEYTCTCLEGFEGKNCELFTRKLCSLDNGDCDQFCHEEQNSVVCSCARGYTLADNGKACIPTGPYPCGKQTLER
Source text: (§1) Additional pharmacodynamic metrics are also gathered for each patient, including, but not limited to: prothrombin time (using the STAR Neoplastin® method) and Factor Xa activity.

[6] = Plasma rivaroxaban concentration-time data and noncompartmental PK: single 20 mg rivaroxaban alone (Period I) vs with steady-state verapamil 360 mg (Period III), mild renal impairment or normal renal function; details: for CL/F / half-life / Tmax: human, in vivo; for CL/F: CL/F/kg; for half-life: t1/2
Protocol: Subjects with either mild renal impairment or with normal renal function were enrolled.
Renal function of the subjects was determined by measuring creatinine clearance (CLcr) rates. Subjects who had CLCr≥90 ml/min were categorized as having normal renal function whereas subjects who had CLcr 50-79 ml/min were categorized as mild renal impaired. Blood samples were collected and processed according to the standard protocols.

[7] = Relationship between steady state rivaroxaban AUC and risk of major bleeding (FIG. 5); assay type: in vivo, human
Protocol: All show the geometric mean plus or minus one standard deviation. […] These four show the geometric mean and the full minimum and maximum subject value range.
Group “c” represents the average of the three subjects in Group “b” who had the highest AUCinf, which was about 8,143 μg·hr/L. The risk of major bleeding of the subjects in Group “c” were at least 5 times higher compared to the populations in Group “a” and not even visible on this scale.

[8] = Example 1 rivaroxaban-verapamil drug-drug interaction study: rivaroxaban plasma levels; assay type: in vivo, human; details: concomitant verapamil vs rivaroxaban alone
Protocol: Cmax and AUC values for each dose are calculated.

Factor Xa [9] = molecular target: T2, Factor Xa; details: 10 mg dose, cited from earlier work
[10] = cited from earlier work
[11] = cited from earlier work; remark: listed apart in the source
[12] = cited from earlier work; remark: listed apart in the source
prothrombin time = test: Prothrombin time (STAR Neoplastin method); assay type: in vivo, human
Source text: As used herein, the term “prothrombin time” (PT) refers to a blood test that measures how long it takes blood to clot. In some embodiments, a prothrombin time test can be used to measure of a patient's haemostasis. In some embodiments, PT can be used to measure the effectiveness or exposure to a blood clotting drug. Persons having skill in the art sometimes interchangeably refer to a PT test as an INR. […] Additionally, PT measurements are subject to variability based on the test reagent and laboratory test ranges determined by each institution.
as §1
Blood samples were collected and processed according to the standard protocols.

[13] = fed subjects, studies 10989 and 11938, single 20 mg; cited from earlier work
[14] = Period III (rivaroxaban and verapamil), Group 2: Normal Renal Function, individual subjects
[15] = single 10 mg dose with a strong CYP3A4/Pgp inhibitor

T1 sequence (P08183 whole entry): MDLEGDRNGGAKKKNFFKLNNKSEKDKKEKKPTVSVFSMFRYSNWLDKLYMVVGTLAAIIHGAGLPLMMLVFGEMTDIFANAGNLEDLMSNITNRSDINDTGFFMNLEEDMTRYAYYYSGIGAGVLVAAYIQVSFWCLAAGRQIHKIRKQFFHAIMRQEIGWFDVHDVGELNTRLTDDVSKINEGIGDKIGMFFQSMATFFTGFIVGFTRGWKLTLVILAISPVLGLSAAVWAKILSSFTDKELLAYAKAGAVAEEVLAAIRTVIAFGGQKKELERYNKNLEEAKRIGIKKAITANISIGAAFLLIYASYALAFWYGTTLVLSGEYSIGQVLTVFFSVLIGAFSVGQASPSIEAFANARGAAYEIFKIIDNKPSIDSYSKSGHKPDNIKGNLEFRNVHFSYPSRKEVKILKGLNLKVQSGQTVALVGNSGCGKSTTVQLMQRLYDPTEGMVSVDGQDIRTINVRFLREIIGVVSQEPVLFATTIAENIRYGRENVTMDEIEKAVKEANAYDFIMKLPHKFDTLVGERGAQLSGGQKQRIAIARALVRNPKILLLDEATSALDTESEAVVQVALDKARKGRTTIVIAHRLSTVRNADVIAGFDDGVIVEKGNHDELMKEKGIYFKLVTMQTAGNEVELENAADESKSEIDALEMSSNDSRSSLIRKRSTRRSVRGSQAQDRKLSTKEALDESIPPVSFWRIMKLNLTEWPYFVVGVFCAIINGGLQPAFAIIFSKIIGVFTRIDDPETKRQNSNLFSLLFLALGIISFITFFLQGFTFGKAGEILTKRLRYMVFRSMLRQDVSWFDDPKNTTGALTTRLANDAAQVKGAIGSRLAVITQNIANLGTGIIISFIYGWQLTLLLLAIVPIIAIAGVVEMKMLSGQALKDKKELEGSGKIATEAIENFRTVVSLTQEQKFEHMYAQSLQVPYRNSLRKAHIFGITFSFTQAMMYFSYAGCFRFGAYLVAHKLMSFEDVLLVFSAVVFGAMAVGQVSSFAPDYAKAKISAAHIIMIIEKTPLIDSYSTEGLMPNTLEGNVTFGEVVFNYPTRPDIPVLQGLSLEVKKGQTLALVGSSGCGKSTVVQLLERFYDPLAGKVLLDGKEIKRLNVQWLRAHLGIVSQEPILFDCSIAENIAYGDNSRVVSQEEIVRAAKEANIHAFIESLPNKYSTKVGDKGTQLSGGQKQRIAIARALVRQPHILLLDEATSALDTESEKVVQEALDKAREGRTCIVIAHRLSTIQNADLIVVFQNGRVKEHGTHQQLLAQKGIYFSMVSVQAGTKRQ

## CC[C@H]1OC(=O)[C@H](C)[C@@H](O[C@H]2C[C@@](C)(OC)[C@@H](O)[C@H](C)O2)[C@H](C)[C@@H](O[C@@H]2O[C@H](C)C[C@H](N(C)C)[C@H]2O)[C@](C)(O)C[C@@H](C)C(=O)[C@H](C)[C@@H](O)[C@]1(C)O [erythromycin]
P-gp [1]
  inhibition of P-gp-mediated efflux of rivaroxaban: did not inhibit
[2]
  renal elimination (unchanged): 2-15%

## COc1ccc(CCNCCCC(C#N)(c2ccc(OC)c(OC)c2)C(C)C)cc1OC (centres unmarked) [norverapamil]
P-gp [3]
  inhibitory potential toward P-gp: have inhibitory potential toward P-gp

## O=C(NC[C@H]1CN(c2ccc(N3CCOCC3=O)cc2)C(=O)O1)c1ccc(Cl)s1 [rivaroxaban, Rivaroxaban]
[4]
  share of reported rivaroxaban serious bleeding adverse events: 30%
Factor Xa [5]
  Factor Xa inhibition: increased Factor Xa inhibition
[6]; [14]
  CL/F/kg: 1.18 mL/min/kg
  CL/F: 1.11 mL/min/kg
[6]; 20 mg, Period I (rivaroxaban alone), Group 2: Normal Renal Function, outlier sample excluded, arithmetic mean
  CL/F: 1.8 mL/min/kg
[6]; 20 mg
  half-life: 9.44 h
  Tmax: 0.5 h
[6]; Period III (rivaroxaban and verapamil), Group 2: Normal Renal Function, median
  CL/F: 1.11 mL/min/kg
[6]
  half-life: 6.56 h
  Tmax: 0.5 h
[7]; AUC approximately 2,026 μg·hr/L
  risk of major bleeding (Group a): about 3%
[7]; mild renal impairment, 20 mg rivaroxaban and 360 mg verapamil
  risk of major bleeding vs Group a (Group b): 2.5 times
[7]; three Group b subjects with highest AUCinf
  risk of major bleeding vs Group a (Group c): at least 5 times
[8]
  rivaroxaban plasma concentrations: higher rivaroxaban plasma concentrations
Factor Xa [9]; mild renal impairment
  AUEC for Factor Xa inhibition vs healthy subjects: 1.5 fold
Factor Xa [9]; moderate renal impairment
  AUEC for Factor Xa inhibition vs healthy subjects: 1.86 fold
Factor Xa [9]; severe renal impairment
  AUEC for Factor Xa inhibition vs healthy subjects: 2.0 fold
[10]; concomitant clarithromycin
  rivaroxaban exposure increase: 54%
[10]; concomitant erythromycin
  rivaroxaban exposure increase: 34%
[10]; concomitant fluconazole
  rivaroxaban exposure increase: 42%
[11]; 20 mg rivaroxaban with food, study 11938
  Cmax, upper boundary of 90% confidence interval: 317 ng/mL
[11]; 20 mg rivaroxaban
  steady state AUC, upper bound of 90% confidence interval (Label A): about 3,792 μg·hr/L
  steady state Cmax, upper bound of 90% confidence interval: 275 ng/mL
[11]; [15]
  Cmax: 268 ng/mL
  estimated steady state AUC (Label B): about 3,404 μg·hr/L
[11]; single 20 mg dose after a meal
  steady state AUC, upper boundary of 90% confidence interval (Label C): about 2,448 μg·hr/L
[12]; in vivo
  rivaroxaban dose eliminated in urine as unprocessed active drug: ~36%
  rivaroxaban dose eliminated through active renal secretion: 30%
  rivaroxaban dose eliminated through glomerular filtration: 6%
  share of rivaroxaban clearance by CYP3A4: approximately 18%
  share of rivaroxaban metabolized by CYP2J2: 14%
[12]; liver oxidative and hydrolytic pathways
  rivaroxaban dose subject to metabolic degradation: Approximately two-thirds
Prothrombin time; concomitant verapamil vs rivaroxaban alone
  prothrombin time (PT): prolonged PT
Prothrombin time; normal renal function and mild renal insufficiency, Day 1 and Day 15
  relationship between pharmacokinetics (plasma concentration) and pharmacodynamics (PT): clear linear relationship
[13]
  AUC, average geometric mean (Group a): approximately 2,026 μg·hr/L
